Marks after values point to notes of the source that are not given here.
Test system: neuron apoptosis-operated rats
Experiment: Example 1 water tank task (cognitive motor behavior)
Format: in vivo, Sprague-Dawley (SD) rats
Procedure: Cognitive testing was conducted using the water tank task (J Neurosci Methods. 11:47-60(1984)). 14 and 28 after neuron apoptosis, the rats were given a series of 3 trials, 10 min apart in a large dark-colored tank (150 cm in diameters×50 cm in height) filled with clear water at a temperature of 22.0±1.0° C. A 15×30 cm submerged platform (2 mm below water surface) was placed in the northwest quadrant of the pool. The release point was always the southern end of the pool. The rats were lowered into the pool facing the wall and were released. The swim paths of the rats for each trials were recorded with a computer interfaced camera tracking system (Smart junior, PanLab, Spain), and the distances (m) and times (sec) taken to reach the escape platform were measured.
All data were expressed as mean±standard deviation (S.D.) of ten rats. Multiple comparison tests for different dose groups were conducted. Variance homogeneity was examined using the Levene test (Levene A, Clin Otalary, 1981; 6:145-51). […] Statistical analyses were conducted using SPSS (Release 14K, SPSS Inc., USA; Ludbrook, Clin Exp Pharmacol Physiol, 1997; 24:294-6). In addition, the percent changes between neuron apoptosis control and mirodenafil treated rats were calculated to help the understanding of the efficacy of test material as follow equation 3. Percentage changes as compared with neuron apoptosis control (%)=[((Data of mirodenafil treated groups−Data of neuron apoptosis control)/Data of neuron apoptosis control)×100] [EQUATION 3]

[1] = 0.5 mg/kg s.c. once a day, at 14 days, Mean of trials
[2] = 0.5 mg/kg s.c. once a day, at 14 days, trial 1
[3] = 0.5 mg/kg s.c. once a day, at 14 days, trial 2
[4] = 0.5 mg/kg s.c. once a day, at 14 days, trial 3
[5] = 0.5 mg/kg s.c. once a day, at 28 days, Mean of trials
[6] = 0.5 mg/kg s.c. once a day, at 28 days, trial 1
[7] = 0.5 mg/kg s.c. once a day, at 28 days, trial 2
[8] = 0.5 mg/kg s.c. once a day, at 28 days, trial 3
[9] = 1 mg/kg s.c. once a day, at 14 days, Mean of trials
[10] = 1 mg/kg s.c. once a day, at 14 days, trial 1
[11] = 1 mg/kg s.c. once a day, at 14 days, trial 2
[12] = 1 mg/kg s.c. once a day, at 14 days, trial 3
[13] = 1 mg/kg s.c. once a day, at 28 days, Mean of trials
[14] = 1 mg/kg s.c. once a day, at 28 days, trial 1
[15] = 1 mg/kg s.c. once a day, at 28 days, trial 2
[16] = 1 mg/kg s.c. once a day, at 28 days, trial 3
[17] = 2 mg/kg s.c. once a day, at 14 days, Mean of trials
[18] = 2 mg/kg s.c. once a day, at 14 days, trial 1
[19] = 2 mg/kg s.c. once a day, at 14 days, trial 2
[20] = 2 mg/kg s.c. once a day, at 14 days, trial 3
[21] = 2 mg/kg s.c. once a day, at 28 days, Mean of trials
[22] = 2 mg/kg s.c. once a day, at 28 days, trial 1
[23] = 2 mg/kg s.c. once a day, at 28 days, trial 2
[24] = 2 mg/kg s.c. once a day, at 28 days, trial 3

CCCOc1ccc(S(=O)(=O)N2CCN(CCO)CC2)cc1-c1nc2c(CCC)cn(CC)c2c(=O)[nH]1 [Mirodenafil, mirodenafil]
The distance to reach the escape platform [1]: 13.36 ± 0.81^a m
The time to reach the escape platform [1]: 119.6 ± 9.53^ad sec
The distance to reach the escape platform [2]: 15.89 ± 1.14 m
The time to reach the escape platform [2]: 149.8 ± 11.05^a sec
The distance to reach the escape platform [3]: 13.35 ± 1.02^ad m
The time to reach the escape platform [3]: 118.0 ± 10.38^ad sec
The distance to reach the escape platform [4]: 10.83 ± 0.85^a m
The time to reach the escape platform [4]: 91.0 ± 11.49^ac sec
The distance to reach the escape platform [5]: 11.38 ± 0.76^ac m
The time to reach the escape platform [5]: 92.1 ± 9.98^ac sec
The distance to reach the escape platform [6]: 13.24 ± 0.83^ad m
The time to reach the escape platform [6]: 113.7 ± 9.57^ac sec
The distance to reach the escape platform [7]: 11.22 ± 1.08^ad m
The time to reach the escape platform [7]: 88.5 ± 12.48^ac sec
The distance to reach the escape platform [8]: 9.68 ± 0.75^ef m
The time to reach the escape platform [8]: 74.1 ± 10.58^ac sec
distances to reach the escape platform, change as compared with neuron apoptosis control (0.5 mg/kg, trial 1 of 28 days): −9.80%
time to reach the escape platform, change as compared with neuron apoptosis control (0.5 mg/kg, trial 1 of 28 days): −11.45%
distances to reach the escape platform, change as compared with neuron apoptosis control (0.5 mg/kg, trial 2 of 14 days): −7.93%
time to reach the escape platform, change as compared with neuron apoptosis control (0.5 mg/kg, trial 2 of 14 days): −10.47%
distances to reach the escape platform, change as compared with neuron apoptosis control (0.5 mg/kg, trial 2 of 28 days): −14.02%
time to reach the escape platform, change as compared with neuron apoptosis control (0.5 mg/kg, trial 2 of 28 days): −22.23%
distances to reach the escape platform, change as compared with neuron apoptosis control (0.5 mg/kg, trial 3 of 14 days): −9.42%
time to reach the escape platform, change as compared with neuron apoptosis control (0.5 mg/kg, trial 3 of 14 days): −18.37%
distances to reach the escape platform, change as compared with neuron apoptosis control (0.5 mg/kg, trial 3 of 28 days): −17.56%
time to reach the escape platform, change as compared with neuron apoptosis control (0.5 mg/kg, trial 3 of 28 days): −29.16%
The distance to reach the escape platform [9]: 12.83 ± 1.29^ac m
The time to reach the escape platform [9]: 116.7 ± 6.30^ac sec
The distance to reach the escape platform [10]: 15.93 ± 1.21 m
The time to reach the escape platform [10]: 150.9 ± 9.00^a sec
The distance to reach the escape platform [11]: 12.89 ± 1.61^ac m
The time to reach the escape platform [11]: 115.3 ± 8.19^ac sec
The distance to reach the escape platform [12]: 9.66 ± 1.42^ac m
The time to reach the escape platform [12]: 83.9 ± 10.10^ac sec
The distance to reach the escape platform [13]: 9.39 ± 1.33^ac m
The time to reach the escape platform [13]: 81.0 ± 8.68^ac sec
The distance to reach the escape platform [14]: 12.65 ± 1.24^ac m
The time to reach the escape platform [14]: 106.6 ± 10.52^bc sec
The distance to reach the escape platform [15]: 9.33 ± 2.17^ac m
The time to reach the escape platform [15]: 78.4 ± 13.55^ac sec
The distance to reach the escape platform [16]: 6.19 ± 1.93^ef m
The time to reach the escape platform [16]: 58.1 ± 9.22^ac sec
distances to reach the escape platform, change as compared with neuron apoptosis control (1 mg/kg, trial 1 of 28 days): −13.80%
time to reach the escape platform, change as compared with neuron apoptosis control (1 mg/kg, trial 1 of 28 days): −16.98%
distances to reach the escape platform, change as compared with neuron apoptosis control (1 mg/kg, trial 2 of 14 days): −11.07%
time to reach the escape platform, change as compared with neuron apoptosis control (1 mg/kg, trial 2 of 14 days): −12.52%
time to reach the escape platform, change as compared with neuron apoptosis control (1 mg/kg, trial 2 of 28 days): −31.11%
distances to reach the escape platform, change as compared with neuron apoptosis control (1 mg/kg, trial 3 of 14 days): −19.20%
time to reach the escape platform, change as compared with neuron apoptosis control (1 mg/kg, trial 3 of 14 days): −24.82%
distances to reach the escape platform, change as compared with neuron apoptosis control (1 mg/kg, trial 3 of 28 days): −47.33%
time to reach the escape platform, change as compared with neuron apoptosis control (1 mg/kg, trial 3 of 28 days): −44.46%
The distance to reach the escape platform [17]: 12.79 ± 0.64^ac m
The time to reach the escape platform [17]: 116.6 ± 10.88^ac sec
The distance to reach the escape platform [18]: 16.18 ± 1.49 m
The time to reach the escape platform [18]: 151.2 ± 10.59^a sec
The distance to reach the escape platform [19]: 12.68 ± 0.82^ac m
The time to reach the escape platform [19]: 115.9 ± 12.51^ac sec
The distance to reach the escape platform [20]: 9.52 ± 1.27^ac m
The time to reach the escape platform [20]: 82.7 ± 15.17^ac sec
The distance to reach the escape platform [21]: 9.46 ± 1.25^ac m
The time to reach the escape platform [21]: 80.6 ± 6.63^ac sec
The distance to reach the escape platform [22]: 12.62 ± 1.21^ac m
The time to reach the escape platform [22]: 106.5 ± 9.79^bc sec
The distance to reach the escape platform [23]: 9.18 ± 1.46^ac m
The time to reach the escape platform [23]: 78.2 ± 8.19^ac sec
The distance to reach the escape platform [24]: 6.56 ± 1.85^ef m
The time to reach the escape platform [24]: 57.2 ± 6.43^ac sec
distances to reach the escape platform, change as compared with neuron apoptosis control (2 mg/kg, trial 1 of 28 days): −14.01%
time to reach the escape platform, change as compared with neuron apoptosis control (2 mg/kg, trial 1 of 28 days): −17.06%
distances to reach the escape platform, change as compared with neuron apoptosis control (2 mg/kg, trial 2 of 14 days): −12.54%
time to reach the escape platform, change as compared with neuron apoptosis control (2 mg/kg, trial 2 of 14 days): −12.06%
distances to reach the escape platform, change as compared with neuron apoptosis control (2 mg/kg, trial 2 of 28 days): −29.65%
time to reach the escape platform, change as compared with neuron apoptosis control (2 mg/kg, trial 2 of 28 days): −31.28%
distances to reach the escape platform, change as compared with neuron apoptosis control (2 mg/kg, trial 3 of 14 days): −20.37%
time to reach the escape platform, change as compared with neuron apoptosis control (2 mg/kg, trial 3 of 14 days): −25.90%
distances to reach the escape platform, change as compared with neuron apoptosis control (2 mg/kg, trial 3 of 28 days): −44.14%
time to reach the escape platform, change as compared with neuron apoptosis control (2 mg/kg, trial 3 of 28 days): −45.32%
